Legend:
[1] = for surface tension liquid-gas: Drop volume; for mass density: 101.33 kPa, Liquid
[2] = xn = mol fraction of the nth substance listed

CC1CCC(C)O1 (stereo not drawn) [2,5-dimethyltetrahydrofuran]
[1]
Settings	mass density [kg/m3]	surface tension liquid-gas [mN/m]
298.15 K	825.25	22.93
313.15 K	–	21.5

CC1CCC(C)O1 (stereo not drawn) [2,5-dimethyltetrahydrofuran] + BrC1CCCCC1
surface tension liquid-gas [mN/m], [2]
Settings	298.15 K	313.15 K
x2 = 0	22.93	21.5
x2 = 0.0692	23.3	21.71
x2 = 0.0908	23.42	21.83
x2 = 0.1916	24.03	22.52
x2 = 0.2942	24.54	23.16
x2 = 0.3981	24.9	23.73
x2 = 0.4712	25.17	24.06
x2 = 0.5994	25.96	24.84
x2 = 0.6382	26.39	25.15
x2 = 0.701	–	25.74
x2 = 0.8032	29.16	–
x2 = 0.8035	–	27.31
x2 = 0.8552	30.35	–
x2 = 0.8558	–	28.4
x2 = 0.8996	31.47	–
x2 = 0.9378	32.34	30.81

CC1CCC(C)O1 (stereo not drawn) [2,5-dimethyltetrahydrofuran] + ClC1CCCCC1
surface tension liquid-gas [mN/m], [2], Drop volume
Settings	298.15 K	313.15 K
x2 = 0	22.93	21.5
x2 = 0.054	–	21.87
x2 = 0.0582	23.29	–
x2 = 0.0998	–	22.15
x2 = 0.1048	23.51	–
x2 = 0.1988	24	–
x2 = 0.202	–	22.76
x2 = 0.3031	24.46	–
x2 = 0.3037	–	23.3
x2 = 0.4025	24.96	–
x2 = 0.4049	–	23.78
x2 = 0.5047	25.45	–
x2 = 0.509	–	24.29
x2 = 0.6055	–	24.87
x2 = 0.6071	25.99	–
x2 = 0.7039	–	25.58
x2 = 0.7088	26.75	–
x2 = 0.8075	–	26.61
x2 = 0.8097	27.83	–
x2 = 0.9009	29.1	–
x2 = 0.9065	–	27.94
x2 = 0.9479	–	28.54
x2 = 0.9482	29.98	–

CC1CCCO1 (stereo not drawn) [2-methyltetrahydrofuran]
[1]
Settings	mass density [kg/m3]	surface tension liquid-gas [mN/m]
298.15 K	849.4	24.56
313.15 K	–	23.02

CC1CCCO1 (stereo not drawn) [2-methyltetrahydrofuran] + BrC1CCCCC1
[2], Drop volume, x2 = 0
Settings	surface tension liquid-gas [mN/m]
298.15 K	24.56
313.15 K	23.02

CC1CCCO1 (stereo not drawn) [2-methyltetrahydrofuran] + ClC1CCCCC1
[2], Drop volume, x2 = 0
Settings	surface tension liquid-gas [mN/m]
298.15 K	24.56
313.15 K	23.02

BrC1CCCCC1 [bromocyclohexane]
[1]
Settings	mass density [kg/m3]	surface tension liquid-gas [mN/m]
298.15 K	1328.41	33.63
313.15 K	–	32.98

BrC1CCCCC1 [bromocyclohexane] + C1CCOC1
surface tension liquid-gas [mN/m], [2], Drop volume
Settings	298.15 K	313.15 K
x1 = 0.0528	27.39	25.66
x1 = 0.0909	27.62	25.94
x1 = 0.1919	28.31	26.67
x1 = 0.2954	29.06	27.39
x1 = 0.3997	29.82	28.12
x1 = 0.5057	30.56	28.88
x1 = 0.611	31.24	29.65
x1 = 0.7127	31.89	30.42
x1 = 0.8064	–	31.18
x1 = 0.8232	32.56	–
x1 = 0.8937	32.98	–
x1 = 0.8994	–	32
x1 = 0.9467	33.31	32.44
x1 = 1	33.63	32.98

BrC1CCCCC1 [bromocyclohexane] + C1CCOCC1
surface tension liquid-gas [mN/m], [2], Drop volume
Settings	298.15 K	313.15 K
x1 = 0.0539	27.62	25.95
x1 = 0.098	27.89	26.32
x1 = 0.1908	28.45	27.01
x1 = 0.296	29.11	27.7
x1 = 0.3969	29.75	28.35
x1 = 0.4993	30.43	28.98
x1 = 0.6178	31.23	29.74
x1 = 0.712	31.86	30.43
x1 = 0.8067	32.49	31.23
x1 = 0.8816	32.95	31.88
x1 = 0.9568	33.39	32.57
x1 = 1	33.63	32.98

BrC1CCCCC1 [bromocyclohexane] + CC1CCC(C)O1
[2], x1 = 1
Settings	surface tension liquid-gas [mN/m]
298.15 K	33.63
313.15 K	32.98
